# Assays:
# Assay type in all cases: functional, cell-based
# [1] = test system: CCRF-CEM; assay: Cytotoxicity in human CEM cells assessed as reduction in cell viability incubated for 72 hrs by calcein AM cytotoxicity assay
# [2] = test system: MCF7; assay: Cytotoxicity in human MCF7 cells assessed as reduction in cell viability incubated for 72 hrs by calcein AM cytotoxicity assay
# [3] = test system: HeLa; assay: Cytotoxicity in human HeLa cells assessed as reduction in cell viability incubated for 72 hrs by calcein AM cytotoxicity assay
# [4] = test system: G-361; assay: Cytotoxicity in human G361 cells assessed as reduction in cell viability incubated for 72 hrs by calcein AM cytotoxicity assay
# [5] = test system: BJ; assay: Cytotoxicity in human BJ cells assessed as reduction in cell viability incubated for 72 hrs by calcein AM cytotoxicity assay
SMILES,"IC50 ([1]; Homo sapiens, CCRF-CEM, 72 h)","IC50 ([2]; Homo sapiens, MCF7, 72 h)","IC50 ([3]; Homo sapiens, HeLa, 72 h)","IC50 ([4]; Homo sapiens, G-361, 72 h)","IC50 ([5]; Homo sapiens, BJ, 72 h)",IC50 ([1]; ccrf-cem),IC50 ([2]; mcf7),IC50 ([4]; g-361),IC50 ([5]; bj),IC50 ([3]; hela)
COCCOC(=O)[C@@]12CC[C@]3(C)[C@H](CC[C@@H]4[C@@]5(C)CC[C@H](OC(C)=O)C(C)(C)[C@@H]5CC[C@]43C)C1=C(C(C)C)C(=O)C2,17.8 µM,42.5 µM,> 50 µM,19.9 µM,> 50 µM,,,,,
CC(=O)OC[C@H]1O[C@@H](OC(=O)[C@]2(COC(C)=O)CC[C@]3(C)[C@H](CC[C@@H]4[C@@]5(C)CC[C@H](OC(C)=O)C(C)(C)[C@@H]5CC[C@]43C)[C@@H]2O)[C@H](OC(C)=O)[C@@H](OC(C)=O)[C@H]1OC(C)=O,> 50 µM,> 50 µM,> 50 µM,> 50 µM,> 50 µM,,,,,
CC(=O)OC[C@H]1O[C@@H](OC(=O)[C@]2(COC(C)=O)CC[C@]3(C)[C@H](CC[C@@H]4[C@@]5(C)CC[C@H](OC(C)=O)C(C)(C)[C@@H]5CC[C@]43C)[C@@H]2O)[C@H](OC(C)=O)[C@@H](OC(C)=O)[C@@H]1OC(C)=O,> 50 µM,> 50 µM,> 50 µM,> 50 µM,43 µM,,,,,
CC(=O)OC[C@H]1O[C@@H](OC(=O)[C@@]23CC[C@]4(C)[C@H](CC[C@@H]5[C@@]6(C)CC[C@H](OC(C)=O)C(C)(C)[C@@H]6CC[C@]54C)C2=C(C(C)C)C(=O)C3)[C@H](OC(C)=O)[C@@H](OC(C)=O)[C@H]1OC(C)=O,4.5 µM,3.7 µM,44.3 µM,3.1 µM,31.8 µM,,,,,
CC(=O)OC[C@H]1O[C@@H](OC(=O)[C@]23CC[C@@H](C(C)C)[C@@H]2[C@H]2CC[C@@H]4[C@@]5(C)CC[C@H](O)C(C)(C)[C@@H]5CC[C@@]4(C)[C@]2(C)CC3)[C@H](OC(C)=O)[C@@H](OC(C)=O)[C@@H]1OC(C)=O,18.6 µM,13.9 µM,15.6 µM,8.1 µM,> 50 µM,,,,,
C=C(C)[C@@H]1CC[C@]2(C(=O)OCCN3CCOCC3)CC[C@]3(C)[C@H](CC[C@@H]4[C@@]5(C)CC[C@H](O)C(C)(C)[C@@H]5CC[C@]43C)[C@@H]12 [listing 1 of 2 here],,> 50 µM,50 µM,> 50 µM,> 50 µM,,,,,
COCCOCCOC(=O)[C@]1(COC(C)=O)CC[C@]2(C)[C@H](CC[C@@H]3[C@@]4(C)CC[C@H](OC(C)=O)C(C)(C)[C@@H]4CC[C@]32C)C1=O,> 50 µM,> 50 µM,> 50 µM,> 50 µM,> 50 µM,,,,,
C=C(C)[C@@H]1CC[C@]2(C(=O)O[C@@H]3O[C@H](CO)[C@@H](O)[C@H](O)[C@H]3O)CC[C@]3(C)[C@H](CC[C@@H]4[C@@]5(C)CC[C@H](O)C(C)(C)[C@@H]5CC[C@]43C)[C@@H]12,> 50 µM,> 50 µM,> 50 µM,> 50 µM,> 50 µM,,,,,
C=C(C)[C@@H]1CC[C@]2(C(=O)OCCN3CCCCC3)CC[C@]3(C)[C@H](CC[C@@H]4[C@@]5(C)CC[C@H](O)C(C)(C)[C@@H]5CC[C@]43C)[C@@H]12,,32.8 µM,23.8 µM,28.6 µM,43.2 µM,26.2 µM,,,,
CC(C)[C@@H]1CC[C@]2(C(=O)OCCN3CCCCC3)CC[C@]3(C)[C@H](CC[C@@H]4[C@@]5(C)CC[C@H](O)C(C)(C)[C@@H]5CC[C@]43C)[C@@H]12,26.7 µM,,,,,,26.1 µM,29.9 µM,46.5 µM,
C=C(C)[C@@H]1CC[C@]2(C(=O)OCCN3CCOCC3)CC[C@]3(C)[C@H](CC[C@@H]4[C@@]5(C)CC[C@H](O)C(C)(C)[C@@H]5CC[C@]43C)[C@@H]12 [listing 2 of 2 here],> 50 µM,,,,,,,,,> 50 µM
C=C(C)[C@@H]1CC[C@]2(C(=O)OCCN3CCCC3)CC[C@]3(C)[C@H](CC[C@@H]4[C@@]5(C)CC[C@H](O)C(C)(C)[C@@H]5CC[C@]43C)[C@@H]12,,,,,,2.3 µM,14.3 µM,7.1 µM,15.5 µM,
